Results reported in patent US11938104B1, “Compositions and methods for prevention and treatment of coronavirus and related disorders” (Abrexa Pharmaceuticals, Inc., priority 2021, dated 2024).
Like-named read-outs stand apart in the source and are kept apart here.

What was measured:
male Sprague Dawley rats = assay type: in vivo, rat
SD rats = settings: rat, in vivo
Male SD rats = assay: J147 dose-response, 2-hour suture MCAO-induced ischemia followed by reperfusion, 72 h (Example 3); assay type: in vivo, rat
[1] = J147 1.0, 10, 30 mg/kg at 2 hours after onset of ischemia, 72 h after stroke, dose-dependent manner

For `COc1cccc(/C=N/N(C(=O)C(F)(F)F)c2ccc(C)cc2C)c1` [Compound J147], the optimal effective dose (male Sprague Dawley rats; iv, doses of 1, 10 and 30 mg/kg tested) was 10 mg/kg, the “infarct volume (TTC-stained sections)” value (male Sprague Dawley rats; rat, in vivo) was “large reduction” and the “infarct volume relative to placebo (TTC-stained sections)” value (male Sprague Dawley rats; rat, in vivo) was “insignificant reduction”. The “infarct volume (TTC-stained sections)” value (male Sprague Dawley rats; rat, in vivo, ip) was “modest reduction”, the “protection from stroke in the absence of reperfusion (infarction, TTC-stained sections)” value (SD rats) was “fails to provide any significant protection” and the “effective optimal dose for the treatment of acute ischemic stroke in rats” value (Male SD rats; 1.0, 10, 30 mg/kg tested) was 10 mg/kg. The infarct volumes (Male SD rats; [1]) was “significantly reduced” and the “neurological deficit after reperfusion (Bederson score)” value (Male SD rats; [1]) was “significantly reduced”.
